Earlier results as cited in patent US9763924B2, “Aminoester derivatives” (CHIESI FARMACEUTICI S.P.A., priority 2014, dated 2017).

Test system: COPD patients
[1] = patients with severe disease who have frequent exacerbations and mucus hypersecretion

In the case of `O=C(Nc1c(Cl)cncc1Cl)c1ccc(OC(F)F)c(OCC2CC2)c1` [roflumilast], the “reduction of the numbers of neutrophils in sputum” value (COPD patients, oral, given over 4 weeks) is listed as 36%, the “improvement of FEV 1” value [1] is listed as “approximately 50 mL” and the reduction of exacerbation [1] is listed as “about 15%”.
